# According to patent publication US11512280B2, “Method for culturing spore-forming bacteria, and method for producing useful substance” (priority 2016, dated 2022):
# Key:
# Assay type in all cases: cell-based
# [1] = test system: Bacillus subtilis MBI-600 strain; test: Surfactin production by Bacillus subtilis, HPLC of culture supernatant (Example 4)
# Method: Using a 500 ml Erlenmeyer flask (with baffles), each 100 ml of media listed in Table 5 was prepared and then autoclave sterilization was carried out. Note that glucose was separately sterilized and aseptically mixed in order to avoid Maillard reaction.
# According to the conditions of each test section, the filter-sterilized aqueous solution of each sporulation-inhibiting substance was added aseptically to each medium. According to the conditions of each test section, one loopful of Bacillus subtilis MBI-600 strain was taken from a colony grown on a nutrient agar medium, inoculated, and then cultured with shaking at 30° C. and 150 rpm.
# Fifty (50) hours after the start of culture, culture was stopped.
# Each of the obtained cultured liquid was centrifuged using a refrigerated centrifuge (TOMY SEIKO Co., Ltd. MX-307) at 10,000 rpm and 20° C. for 30 minutes, thereby collecting a supernatant.
# To a solid-phase extraction column (Nihon Waters K.K. Oasis HLB 3 cc (400 mg) LP Extraction Cartridge), 3 ml of 0.1% TFA-containing acetonitrile was added and allowed to pass therethrough, and then 3 ml of 0.1% TFA-containing distilled water was added to pass through the column. Two ml of the thus collected centrifugal supernatant of each culture medium was added to pass through the column, 6 ml of 0.1% TFA-containing distilled water, and then 3 ml of 0.1% TFA-containing acetonitrile/distilled water (20:80, v/v) were allowed to pass through the column in sequence for washing. Next, 3 ml of 0.1% TFA-containing acetonitrile/distilled water (90:10, v/v) was allowed to pass through the column, thereby collecting an eluate. 0.1% TFA-containing acetonitrile/distilled water (90:10, v/v) was added, so that the amount of the collected solution was 4 ml, and then HPLC analysis was conducted under the following conditions.
# HPLC: Agilent Technologies, Inc. 1260 Infinity […]
# Each medium was compared with the authentic sample in terms of peak area detected at the elution time of 27.6 minutes and that of 28.4 minutes, thereby calculating the surfactin concentration in the culture medium.
# [2] = test system: Bacillus thuringiensis NBRC 101235 strain; test: Culture of Bacillus thuringiensis with sporulation-inhibiting substance, 40 hours (Example 3); conditions: for Bacterial cell concentration / Spore concentration / Sporulation rate: 40 hours culture
# Method: Using a 500 ml Erlenmeyer flask (with baffles), each 100 ml of media listed in Table 1 was prepared and then autoclave sterilization was carried out. Note that glucose was separately sterilized and aseptically mixed in order to avoid Maillard reaction.
# According to the conditions of each test section, the filter-sterilized aqueous solution of each sporulation-inhibiting substance was added aseptically to each medium. According to the conditions of each test section, one loopful of Bacillus thuringiensis NBRC 101235 strain was taken from a colony grown on a nutrient agar medium, inoculated, and then cultured with shaking at 30° C. and 150 rpm for 40 hours.
# (§1) Each of the thus obtained culture liquid was diluted 10-fold with sterile water, and then the bacterial cell concentration (vegetative cells and spores) and the sporulation rate (spore concentration/bacterial cell concentration) were measured using an optical microscope and a bacterial cell counter.
# [3] = test system: Bacillus subtilis MBI-600; test: Culture of Bacillus subtilis with sporulation-inhibiting substance, 64 hours (Example 1)
# Method: Using a 500 ml Erlenmeyer flask (with baffles), each 100 ml of media listed in Table 1 was prepared and then autoclave sterilization was carried out. Glucose was separately sterilized and aseptically mixed in order to avoid Maillard reaction.
# According to the conditions of each test section, the filter-sterilized aqueous solution of each sporulation-inhibiting substance was added aseptically to each medium. One loopful of Bacillus subtilis MBI-600 was taken from a colony grown on a nutrient agar medium, inoculated, and then cultured with shaking at 30° C. and 150 rpm for 64 hours.
# as §1
# [4] = test system: Bacillus subtilis MBI-600 strain; test: Culture of Bacillus subtilis in Table 5 medium with sporulation-inhibiting substance, 50 hours, cell and spore counts (Example 4); conditions: for Bacterial cell concentration: carbon content 18.2 g/L
# Method: Using a 500 ml Erlenmeyer flask (with baffles), each 100 ml of media listed in Table 5 was prepared and then autoclave sterilization was carried out. Note that glucose was separately sterilized and aseptically mixed in order to avoid Maillard reaction. According to the conditions of each test section, the filter-sterilized aqueous solution of each sporulation-inhibiting substance was added aseptically to each medium. According to the conditions of each test section, one loopful of Bacillus subtilis MBI-600 strain was taken from a colony grown on a nutrient agar medium, inoculated, and then cultured with shaking at 30° C. and 150 rpm. Fifty (50) hours after the start of culture, culture was stopped.
# [5] = 0.1 ppm added, 64 hours culture
# [6] = 1.0 ppm added, 64 hours culture
structure (smiles),measurement,setting,value
CC[C@H]1OC(=O)[C@H](C)[C@@H](O[C@H]2C[C@@](C)(OC)[C@@H](O)[C@H](C)O2)[C@H](C)[C@@H](O[C@@H]2O[C@H](C)C[C@H](N(C)C)[C@H]2O)[C@](C)(O)C[C@@H](C)C(=O)[C@H](C)[C@@H](O)[C@]1(C)O [Erythromycin],Surfactin concentration,[1]; 0.1 ppm and 0.2 ppm,tended to increase
same,Surfactin concentration,"[1]; 0.1 ppm, 50 hours culture, in the culture medium",58.5 ppm
same,Surfactin concentration,"[1]; 0.2 ppm, 50 hours culture, in the culture medium",75.7 ppm
same,bacterial cell concentration and spore concentration,[2]; 0.05 ppm,tended to increase
same,Bacterial cell concentration,[2]; 0.05 ppm,1.5e+09 mL⁻¹
same,Spore concentration,[2]; 0.05 ppm,1.1e+09 mL⁻¹
same,Sporulation rate,[2]; 0.05 ppm,73%
same,effect of inhibiting sporulation,[2]; 0.1 ppm,confirmed
same,Bacterial cell concentration,[2]; 0.1 ppm,2e+09 mL⁻¹
same,Spore concentration,[2]; 0.1 ppm,3e+08 mL⁻¹
same,Sporulation rate,[2]; 0.1 ppm,16%
same,effect of inhibiting sporulation,[3]; 0.1 ppm,not observed
same,Spore concentration,[3]; [5],2.8e+09 mL⁻¹
same,Sporulation rate,[3]; [5],80%
same,Bacterial cell concentration,"[3]; 0.1 ppm added, 64 hours culture, carbon content 9.1 g/L",3.5e+09 mL⁻¹
same,effect of inhibiting sporulation,[3]; 1 ppm,observed
same,Bacterial cell concentration,[3]; [6],6.2e+09 mL⁻¹
same,Sporulation rate,[3]; [6],0%
same,bacterial cell concentrations as the concentration of the substance increased,[3]; trend over tested concentrations,tended to increase
same,Spore concentration,[4]; 0.1 ppm and 0.2 ppm,tended to increase
same,Spore concentration,"[4]; 0.1 ppm, 50 hours culture",8e+09 mL⁻¹
same,Sporulation rate,"[4]; 0.1 ppm, 50 hours culture",99%
same,Bacterial cell concentration,"[4]; 0.1 ppm, 50 hours culture",8.1e+09 mL⁻¹
same,Spore concentration,"[4]; 0.2 ppm, 50 hours culture",6.9e+09 mL⁻¹
same,Sporulation rate,"[4]; 0.2 ppm, 50 hours culture",100%
same,Bacterial cell concentration,"[4]; 0.2 ppm, 50 hours culture",6.9e+09 mL⁻¹
